US10828288B2, “Hydrazone derivatives for the treatment of cancer” (RUTGERS, THE STATE UNIVERSITY OF NEW JERSEY, priority 2015, dated 2020)

Tests used:
[1] = Liposome import assay (RZ-3 fluorescence); type: physicochemical; conditions: for change of RZ-3 fluorescence with reversed [Zn2+]free gradient: large excess of EDTA outside the liposomes, ZMC1 added subsequently; for shuttling of Zn2+ into liposomes: external [Zn2+]free 10 μM
Description: DOPC-liposomes were prepared by film rehydration and extrusion followed by gel filtration and diluted to an OD600=0.06 in buffer. The size distribution of the liposomes was determined by dynamic light scattering (DLS) using a Malvern Zetasizer Nano ZS. Fluorescence measurements were taken on a Horiba Fluoromax-4 spectrofluorimeter in a 5×5 mm quartz cuvette with λex/λcm=550/572 nm for RZ-3 and 490/515 nm for calcein. Initial Zn^2+ import/export was quantified by fitting the first 10-30 s of data after each treatment to a line and converted to units of flux using the following Eqn 1:
[formula] where Ji is the initial flux, ΔF/Δt is the slope of the fit line, Fmax is RZ-3 fluorescence in the presence of saturating Zn^2+ and 1% TritonX-100, Fmin is RZ-3 fluorescence in the presence of excess EDTA and 1% TritonX-100, [RZ3] is the concentration of encapsulated RZ-3, and SA/Vol is the surface area to volume ratio calculated assuming hollow spheres of the mean diameter determined by DLS. Intracellular [Zn^2+]free Imaging TOV112D or HEK293 cells (40,000 cells/well) were plated on either 8-well BD Falcon chambered culture slides (Corning Life Sciences) or 8-chambered #1.5 Nunc Lab-Tek II chambered coverglasses (Thermo Scientific) treated with poly-L-lysine. After 48 h, cells were washed 2×5 m in serum-free media and incubated with 1 μM FZ3-AM for 40 m at 37° C. Cells were then washed 2×5 m in either EBSS/H (−)Ca/Mg or phenol-red free DMEM+10% FBS containing the indicated treatments for 20 m before imaging. For nuclear colocalization, 1 μg/mL Hoechst 33342 was also included. Cells were imaged using a Zeiss LSM510 META NLO confocal microscope equipped with 37° C. environmental control chamber. FZ3 and Hoechst 33342 were excited at 488 nm (argon laser) and 790 nm (Chameleon Ti:sapphire laser), respectively. To determine the kinetics of fluorescence change, each background-subtracted image in the time-lapse series was integrated in ImageJ and normalized to the integrated fluorescence of the first frame after treatment. For quantification of intracellular [Zn^2+]free, each cell was analyzed in the treated, 50 μM PYR/ZnCl2 (1:1), and 100 μM TPEN images by taking the mean fluorescence of an ROI inside the cell subtracted by an ROI immediately outside the cell measured in ImageJ. The [Zn^2+]free for each cell was then calculated by Eqn 2: […]

[2] = system: HEK293 (non-cancer, p53-WT) cells; experiment: Intracellular [Zn2+]free imaging with FluoZin-3-AM, HEK293; type: cell-based; conditions: for increase of intracellular [Zn2+]free (FZ3-AM fluorescence): HEK293, complete media, confocal microscopy
Description: To minimize the potential for Zn^2+ contamination and contributions from poorly defined elements in complete media (e.g. FBS), cells were treated and imaged in Ca^2+ and Mg^2+-free Earle's Balanced Salt Solution supplemented with 10 mM HEPES pH 7.4 (EBSS/H (−)Ca/Mg). Excess ZnCl2 with the Zn^2+ ionophore pyrithione (PYR) was used as a positive control. Excess membrane-permeable Zn^2+ chelator N,N,N′,N′-tetrakis(2-pyridylmethyl)ethane-1,2-diamine (TPEN) was used as a negative control.
To normalize for differential dye loading, cells were then sequentially treated with excess PYR/ZnCl2, imaged, treated with TPEN, and imaged again. PYR/ZnCl2 and TPEN served to saturate and apoize the intracellular FZ3, respectively.
[formula] where Ji is the initial flux, ΔF/Δt is the slope of the fit line, Fmax is RZ-3 fluorescence in the presence of saturating Zn^2+ and 1% TritonX-100, Fmin is RZ-3 fluorescence in the presence of excess EDTA and 1% TritonX-100, [RZ3] is the concentration of encapsulated RZ-3, and SA/Vol is the surface area to volume ratio calculated assuming hollow spheres of the mean diameter determined by DLS. Intracellular [Zn^2+]free Imaging TOV112D or HEK293 cells (40,000 cells/well) were plated on either 8-well BD Falcon chambered culture slides (Corning Life Sciences) or 8-chambered #1.5 Nunc Lab-Tek II chambered coverglasses (Thermo Scientific) treated with poly-L-lysine. After 48 h, cells were washed 2×5 m in serum-free media and incubated with 1 μM FZ3-AM for 40 m at 37° C. Cells were then washed 2×5 m in either EBSS/H (−)Ca/Mg or phenol-red free DMEM+10% FBS containing the indicated treatments for 20 m before imaging. For nuclear colocalization, 1 μg/mL Hoechst 33342 was also included. Cells were imaged using a Zeiss LSM510 META NLO confocal microscope equipped with 37° C. environmental control chamber. FZ3 and Hoechst 33342 were excited at 488 nm (argon laser) and 790 nm (Chameleon Ti:sapphire laser), respectively. To determine the kinetics of fluorescence change, each background-subtracted image in the time-lapse series was integrated in ImageJ and normalized to the integrated fluorescence of the first frame after treatment. For quantification of intracellular [Zn^2+]free, each cell was analyzed in the treated, 50 μM PYR/ZnCl2 (1:1), and 100 μM TPEN images by taking the mean fluorescence of an ROI inside the cell subtracted by an ROI immediately outside the cell measured in ImageJ. The [Zn^2+]free for each cell was then calculated by Eqn 2:
[formula] […] To minimize the effects of outliers the lowest and highest 5% of cells in each series were rejected, and the remaining values averaged to give the value from that experiment. The number of cells analyzed in each trial ranged from 54-163. For nuclear colocalization, treated, PYR/ZnCl2, and TPEN treated images costained with Hoechst 33342 were aligned and each pixel subjected to Eqn. 2 in MATLAB (MathWorks).

H1299 (p53-null) = experiment: Cell growth inhibition assay, H1299; type: cell-based, human; conditions: three day assay, H1299, FIG. 1
H460 (p53-WT) = experiment: Cell growth inhibition assay, H460; type: cell-based, human; conditions: three day assay, H460, FIG. 1

Compound | ability to cross liposomal (or cellular) membranes [1] | change of RZ-3 fluorescence with reversed [Zn2+]free gradient [1] | increase of intracellular [Zn2+]free (FZ3-AM fluorescence) [2] | cell growth inhibition of p53 null cell line (H1299 (p53-null)) | cell growth inhibition of p53 wildtype cell line (H460 (p53-WT)) | shuttling of Zn2+ into liposomes [1] | further results
C/C(=N\NC(=S)N1CCC1)c1ccccn1 [ZMC1] | crossed the liposomal membranes | time dependent decrease | increased |  |  |  | steady-state intracellular [Zn2+]free ([2]; HEK293, 1 μM ZMC1 and 0.5 μM ZnCl2 in EBSS/H (−)Ca/Mg): 18.1 ± 4.7 nM; increase of intracellular [Zn2+]free, compound alone ([2]; HEK293, EBSS/H (−)Ca/Mg, ZMC1 alone without ZnCl2): neither cell type showed an increase; increase of intracellular [Zn2+]free, with ZnCl2 ([2]; HEK293, EBSS/H (−)Ca/Mg, ZMC1 and ZnCl2, two ZnCl2 concentrations): time dependent increase
C/C(=N\Nc1nc2ccccc2s1)c1ccccn1 [Example 1, (E)-2-(2-(1-(pyridin-2-yl)ethylidene)hydrazinyl)benzo[d]thiazole] |  |  |  | undisturbed | undisturbed |  | 
O=C(O)CN(CCN(CC(=O)O)CC(=O)O)CC(=O)O [EDTA] | impermeable | did not cause a significant decrease |  |  |  |  | 
C/C(=N\Nc1nc2ccccc2o1)c1ccccn1 [Example 2, (E)-2-(2-(1-(pyridin-2-yl)ethylidene)hydrazinyl)benzo[d]oxazole] |  |  |  | undisturbed | undisturbed |  | 
O=C(O)CN(CC(=O)O)CC(=O)O [NTA] | cannot cross |  | did not |  |  | did not | 
C/C(=N\NC(=O)N1CCC1)c1ccccn1 [Example A6] |  |  | did not |  |  | shuttled Zn^2+ into the liposomes | 
